# Experiments:
# [1] = tested on: C57BL/6 mice transplanted with BALB/c hearts; experiment: Murine heterotopic heart transplant model; format: in vivo, mouse; conditions: Rapamycin alone 0.1 mg/kg day 0 to day 10; n=5; Ctrl MST=7
# Description: The immunosuppressive potential of […] was tested on a heterotopic heart transplant model; hearts of BALB/c mice were transplanted into the abdominal cavity of C57BL/6 mice.
# The beats of the heart were measured, twice weekly, by palpation; stopping of beating was regarded as a sign of transplant rejection.
# Three different protocols were used for prolonging transplant survival times: the “short-term” protocol ([…] 9 mg/kg daily for 14 days), the “long-term” protocol ([…] 9 mg/kg every day until rejection), and the “Combo” protocol ([…] on alternate days: day 0, 2, 4, 6, 8, 10, 12, 14+Rapamycin 0.1 mg/kg from day 0 to day 10).
# In the acute heart transplant models, the hearts of BALB/c were transplanted into the peritoneal cavity of C57BL/6 mice. The control mice invariably reject the transplant in 10 days (Ctrl: MST=7 days, n=12), (FIG. 26). The “short-term” protocol permitted indefinite survival (100 days) in 10 mice out of 12 (n=12; p=0.0001 vs. Ctrl), (FIG. 26). Similarly, the “long-term” protocol permitted indefinite survival in 8 mice out of 10 (n=10; p=0.002 vs Ctrl), and prolonged survival in the remaining 2 (16 days and 25 days; p=0.002 vs. Ctrl), (FIG. 26).
# The histological sections of the hearts on day 7 of BALB/c mice, transplanted into a C57BL/6 host, and treated with the “short-term” protocol, were also analysed.
# [2] = tested on: Swiss CD1 mice; experiment: CFA thermal hyperalgesia, synergy with opioids
# Description: We compared the activity of […] with that of the opioids to study its analgesic effect.
# Mice of the Swiss CD1 type were given a single intraplantar injection of 30 microlitres of complete Freund adjuvant (CFA) in the right plantar pad. Intraperitoneal injection of […] and/or of morphine (morphine chlorhydrate, Molteni) was administered 24 hours after injection of CFA according to the following scheme:
# 1. […] 7.5 mg/kg; 2. […] 10 mg/kg; 3. […] 200 mg/kg; 4. […] 50 mg/kg; 5. Morphine 0.4 mg/kg; 6. Morphine 2.5 mg/kg; 7. Morphine 1 mg/kg; 8. Morphine 0.4 mg/kg; 9. Morphine 1 mg/kg+[…] 10 mg/kg; 10. Morphine 0.4 mg/kg+[…] 10 mg/kg; 11. Morphine 1 mg/kg+[…] 10 mg/kg; 12. Morphine 0.4 mg/kg+[…] 10 mg/kg; 13. Morphine 4 mg/kg.
# Groups 9-11 and 10-12 have the same doses respectively; they were repeated to confirm the results.
# Thermal hyperalgesia was assessed using the Ugo Basile apparatus (Comerio, Italy).
# The test was carried out before (baseline values) injection of CFA, after injection of CFA and 0.5, 1, 2, 3, 6 and 12 hours after injecting the drug in the inflamed pad.
Structure (SMILES),MST (mean survival time) [1] [days],obsessive-compulsive disorders (behaviour) ([2]; morphine 2.5 mg/kg or higher doses),activity on nociception ([2]; morphine alone i.p. at the highest dose)
"CO[C@H]1C[C@@H]2CC[C@@H](C)[C@@](O)(O2)C(=O)C(=O)N2CCCC[C@H]2C(=O)O[C@H]([C@H](C)C[C@@H]2CC[C@@H](O)[C@H](OC)C2)CC(=O)[C@H](C)/C=C(\C)[C@@H](O)[C@@H](OC)C(=O)[C@H](C)C[C@H](C)/C=C/C=C/C=C/1C [Rapamycin, reference compound]",25,–,–
"CN1CC[C@]23c4c5ccc(O)c4O[C@H]2[C@@H](O)C=C[C@H]3[C@H]1C5 [morphine, morphine chlorhydrate, reference compound]",–,displayed obsessive-compulsive disorders,anaesthetic-like

# From patent US20160129005A1, “ADENINE DERIVATIVES HAVING IMMUNOMODULATING ANTI-INFLAMMATORY AND ANALGESIC ACTIVITY” (MEDESTEA RESEARCH & PRODUCTION S.p.A., priority 2011, published 2016)
